Laboratory results from ChEMBL document CHEMBL4052752, “Synthesis and evaluation of 1-phenyl-1H-1,2,3-triazole-4-carboxylic acid derivatives as xanthine oxidase inhibitors” (Bioorg Med Chem Lett, 2017).

Key:
[1] = molecular target: T1, Xanthine dehydrogenase/oxidase (Bos taurus, UniProt P80457); assay: Inhibition of bovine xanthine oxidase assessed as reduction in uric acid production using xanthine as substrate preincubated for 10 mins followed by substrate addition by spectrophotometric analysis
T1 sequence (P80457 whole entry): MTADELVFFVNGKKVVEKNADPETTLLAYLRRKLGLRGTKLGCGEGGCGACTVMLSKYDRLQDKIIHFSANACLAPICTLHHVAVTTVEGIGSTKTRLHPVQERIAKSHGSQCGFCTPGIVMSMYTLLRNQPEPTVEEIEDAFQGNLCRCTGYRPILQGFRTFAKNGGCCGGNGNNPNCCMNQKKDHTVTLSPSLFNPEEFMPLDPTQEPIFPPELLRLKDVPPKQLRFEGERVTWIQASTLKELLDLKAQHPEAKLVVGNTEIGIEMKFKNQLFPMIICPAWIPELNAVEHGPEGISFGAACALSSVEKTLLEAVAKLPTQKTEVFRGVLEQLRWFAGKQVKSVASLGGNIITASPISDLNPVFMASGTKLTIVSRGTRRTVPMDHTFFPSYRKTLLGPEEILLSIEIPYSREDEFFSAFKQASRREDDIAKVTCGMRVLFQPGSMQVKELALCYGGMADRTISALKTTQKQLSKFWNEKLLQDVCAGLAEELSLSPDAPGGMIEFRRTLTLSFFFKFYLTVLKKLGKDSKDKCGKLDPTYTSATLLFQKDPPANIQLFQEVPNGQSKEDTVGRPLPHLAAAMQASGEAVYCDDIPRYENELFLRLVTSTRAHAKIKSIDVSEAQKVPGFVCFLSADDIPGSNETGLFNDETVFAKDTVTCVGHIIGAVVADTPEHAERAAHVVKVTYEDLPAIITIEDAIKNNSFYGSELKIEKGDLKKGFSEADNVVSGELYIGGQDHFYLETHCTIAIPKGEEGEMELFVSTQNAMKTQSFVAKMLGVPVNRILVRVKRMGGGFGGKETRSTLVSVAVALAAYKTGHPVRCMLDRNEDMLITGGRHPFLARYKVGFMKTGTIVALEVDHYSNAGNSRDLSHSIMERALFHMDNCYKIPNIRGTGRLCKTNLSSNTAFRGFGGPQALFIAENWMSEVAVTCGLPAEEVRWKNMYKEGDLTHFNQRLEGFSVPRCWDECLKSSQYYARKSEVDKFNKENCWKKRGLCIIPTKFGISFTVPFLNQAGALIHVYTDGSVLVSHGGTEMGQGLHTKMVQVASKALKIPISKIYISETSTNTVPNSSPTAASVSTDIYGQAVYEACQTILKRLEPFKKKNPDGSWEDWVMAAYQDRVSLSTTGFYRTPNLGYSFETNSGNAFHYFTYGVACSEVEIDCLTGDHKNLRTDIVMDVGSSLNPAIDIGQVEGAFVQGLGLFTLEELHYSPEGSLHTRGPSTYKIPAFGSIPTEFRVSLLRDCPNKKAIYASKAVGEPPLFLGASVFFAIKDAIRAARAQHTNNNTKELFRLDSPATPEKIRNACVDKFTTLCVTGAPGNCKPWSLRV

[2] = molecular target: T1, Xanthine dehydrogenase/oxidase; assay: Potency index, ratio of allopurinol IC50 to compound IC50 for bovine xanthine oxidase; conditions: cattle
[3] = molecular target: T1, Xanthine dehydrogenase/oxidase; assay: Mixed-type inhibition of bovine xanthine oxidase by Lineweaver-Burk plot method; conditions: cattle

| Structure (SMILES) | IC50 [1] [µM] | Ratio IC50 [2] | inhibition (INH) [3] |
| --- | --- | --- | --- |
| N#Cc1cc(-n2cc(C(=O)O)nn2)ccc1OCc1ccc(Cl)cc1 | 0.94 | – | – |
| CCCCOc1ccc(-n2cc(C(=O)O)nn2)cc1C#N | 5.03 | – | – |
| N#Cc1cc(-n2cc(C(=O)O)nn2)ccc1OCc1ccccc1 | 2.4 | – | – |
| COc1ccc(COc2ccc(-n3cc(C(=O)O)nn3)cc2C#N)cc1 | 0.72 | – | – |
| CCCCCCCCOc1ccc(-n2cc(C(=O)O)nn2)cc1C#N | 0.63 | – | – |
| CC(C)COc1ccc(-n2cc(C(=O)O)nn2)cc1C#N | 3.27 | – | – |
| N#Cc1ccc(COc2ccc(-n3cc(C(=O)O)nn3)cc2C#N)cc1 | 0.85 | – | – |
| CCC(C)Oc1ccc(-n2cc(C(=O)O)nn2)cc1C#N (stereo unspecified) | 3.96 | – | – |
| N#Cc1cccc(COc2ccc(-n3cc(C(=O)O)nn3)cc2C#N)c1 | 3.35 | – | – |
| CCCOc1ccc(-n2cc(C(=O)O)nn2)cc1C#N | > 30 | – | – |
| CCCCCOc1ccc(-n2cc(C(=O)O)nn2)cc1C#N | 2.85 | – | – |
| CCCCCCOc1ccc(-n2cc(C(=O)O)nn2)cc1C#N | 1.5 | – | – |
| COc1ccccc1COc1ccc(-n2cc(C(=O)O)nn2)cc1C#N | 0.76 | – | – |
| CCCCCCCOc1ccc(-n2cc(C(=O)O)nn2)cc1C#N | 1.47 | – | – |
| COCCOc1ccc(-n2cc(C(=O)O)nn2)cc1C#N | 26.1 | – | – |
| COc1cccc(COc2ccc(-n3cc(C(=O)O)nn3)cc2C#N)c1 | 0.21 | 36 | Active |
| N#Cc1cc(-n2cc(C(=O)O)nn2)ccc1OC1CCCC1 | 1.08 | – | – |
| CC(C)Oc1ccc(-n2cc(C(=O)O)nn2)cc1C#N | 6.24 | – | – |
| CC(C)CCOc1ccc(-n2cc(C(=O)O)nn2)cc1C#N | 1.62 | – | – |
